# Results from ChEMBL document CHEMBL1145246, “Lactams as prostanoid receptor ligands. Part 4: 2-Piperidones as selective EP4 receptor agonists” (Bioorg Med Chem Lett, 2005).
# Key:
# [1] = target: Prostaglandin E2 receptor EP4 subtype (Homo sapiens, UniProt P35408); experiment: Effective concentration required for prostanoid EP4 receptor activity was determined; assay type: functional
# [2] = Binding affinity for Prostanoid EP2 receptor
# [3] = Binding affinity for prostanoid EP3 receptor
# [4] = Binding affinity for prostanoid EP4 receptor
# [5] = Binding affinity for prostanoid EP2 receptor
# Prostaglandin E2 receptor EP4 subtype, sequence (P35408 whole entry): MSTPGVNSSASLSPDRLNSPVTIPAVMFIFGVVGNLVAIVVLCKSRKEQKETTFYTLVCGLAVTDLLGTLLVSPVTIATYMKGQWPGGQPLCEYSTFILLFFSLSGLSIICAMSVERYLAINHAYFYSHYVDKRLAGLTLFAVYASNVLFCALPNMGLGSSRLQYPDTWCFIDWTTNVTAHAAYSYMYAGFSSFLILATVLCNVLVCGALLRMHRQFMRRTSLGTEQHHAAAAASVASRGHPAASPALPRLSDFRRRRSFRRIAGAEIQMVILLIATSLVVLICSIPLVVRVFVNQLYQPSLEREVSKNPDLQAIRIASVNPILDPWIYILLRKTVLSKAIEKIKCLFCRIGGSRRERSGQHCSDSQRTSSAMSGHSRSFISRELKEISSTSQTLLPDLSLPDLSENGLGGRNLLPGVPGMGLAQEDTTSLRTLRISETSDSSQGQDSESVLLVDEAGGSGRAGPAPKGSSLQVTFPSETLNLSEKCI
Compound,EC50 [1] [nM],Ki [2] [nM],Ki [3] [nM],Ki [4] [nM],Ki [5] [nM]
O=C(O)CCCSCCN1C(=O)CCC[C@@H]1/C=C/[C@@H](O)CCC1CC1,190,> 10000,> 10000,21,
CC(C)c1cc(C[C@H](O)/C=C/[C@H]2CCCC(=O)N2CCCCCCC(=O)O)ccc1O,1730,,,130,> 10000
O=C(O)CCCSCCN1C(=O)CCC[C@@H]1CC[C@@H](O)c1ccc(C(F)(F)F)o1,630,,> 10000,105,> 10000
CCCCC(C)(C)C(O)/C=C/[C@H]1CCCC(=O)N1CCSCCCC(=O)O (some centres not stated),290,,,86,> 10000
Cc1cc(O)ccc1-c1cccc(C(=O)CC[C@H]2CCCC(=O)N2CCCCCCC(=O)O)c1,21000,,,,
O=C(O)CCCSCCN1C(=O)CCC[C@@H]1/C=C/C(O)C1(c2ccccc2)CC1 (some centres not stated),260,,> 10000,17,> 10000
Cc1cc(Cl)ccc1-c1cccc([C@H](O)CC[C@H]2CCCC(=O)N2CCSCCCC(=O)O)c1,6.1,,> 10000,4.8,1600
Cc1cc(C[C@H](O)/C=C/[C@H]2CCCC(=O)N2CCCCCCC(=O)O)ccc1O,280,,> 10000,7.4,> 10000
COCc1cccc(C[C@H](O)/C=C/[C@H]2CCCC(=O)N2CCSCCCC(=O)O)c1,44,,> 10000,22,> 10000
O=C(O)CCCSCCN1C(=O)CCC[C@@H]1/C=C/[C@@H](O)CCC1CCC1,34,,> 10000,7.3,3800
Cc1cc(O)ccc1-c1cccc([C@@H](O)CC[C@H]2CCCC(=O)N2CCCCCCC(=O)O)c1,110,,> 10000,25,> 10000
COCc1cccc(C[C@H](O)/C=C/[C@H]2CCCC(=O)N2CCCCCCC(=O)O)c1,44,,,8.7,> 10000
